Data from patent US11319341B2, “Immune-stimulating soluble doxorubicin-conjugated complex” (Yafei (Shanghai) Biopharmaceutical Co., Ltd., priority 2016, dated 2022).
Non-standard residues stand in square brackets, D forms with d. Residues, ends and D or L forms follow the SMILES beside them. ξ: configuration not given here. *: point of attachment. Doxorubicin(3'-N) = COc1cccc2c1C(=O)c1c(O)c3c(c(O)c1C2=O)C[C@@](O)(C(=O)CO)C[C@@H]3O[C@H]1C[C@H](N*)[C@H](O)[C@H](C)O1; MaleimidoPEG4propanoyl = O=C1C=CC(=O)N1CCOCCOCCOCCOCCC(=O)*; Hexanoyl(6-maleimido) = O=C1C=CC(=O)N1CCCCCC(=O)*; Butanoyl(4-maleimido) = O=C1C=CC(=O)N1CCCC(=O)*; Propanoyl(3-maleimido) = O=C1C=CC(=O)N1CCC(=O)*; X2 = O=C1C=CC(=O)N1CCOCCOCCC(=O)*; PEG3 = NCCOCCOCCOCCC(=O)O; PEG2 = NCCOCCOCCC(=O)O; ξL = CC(C)CC(N)C(=O)O

Columns and labels:
[1] = tested on: Human liver cancer HepG2 cells; experiment: Efficacy on human liver cancer HepG2 cells in nude mice; assay type: in vivo; settings: 54 umol/kg IV once weekly for four weeks
Text: Test purpose: to investigate the anti-tumor efficacy of some compounds of the invention in mice model for tumor treatment.
Test drug: QHL-095, QHL-008, QHL-086, QHL-116, QHL-119, QHL-092, QHL-006, QHL-089, QHL-005, QHL-007, QHL-096, QHL-012, QHL-087, QHL-117, QHL-120, QHL-093, QHL-010, QHL-090, QHL-009, QHL-011 injections and control group injection, diluted to corresponding concentrations by physiological saline when testing.
(§1) 1. Animal: nude mice of 6-8 weeks old, all female.
1) Human liver cancer HepG2 cells were purchased from American type culture collection (ATCC) and identified according the specification provided by ATCC.
(§2) 2) Production of tumor. […] Mice were randomly grouped after the tumor reached at least 100 mm^3. Then treatment began and the day on which the treatment began was day 1.
According to the clinical application of QHL-095, QHL-008, QHL-086, QHL-116, QHL-119, QHL-092, QHL-006, QHL-089, QHL-005, QHL-007, QHL-096, QHL-012, QHL-087, QHL-117, QHL-120, QHL-093, QHL-010, QHL-090, QHL-009, QHL-011, drugs were intravenously injected (IV). Compounds and control groups were administered in a dose of 54 umol/kg. The control group was administered by physiological saline. Drugs were administered once weekly for four weeks.

[2] = tested on: HT1080 cells; experiment: Efficacy in HT1080 tumor model; assay type: in vivo; settings: HT1080, nude mice, 18 umol/kg IV once weekly for 3 weeks
Text: Test purpose: to investigate the anti-tumor efficacy of QHL-086, QHL-092, QHL-095, QHL-087, QHL-010, QHL-117 in mice model for tumor treatment.
Test drug: C3, QHL-086, QHL-092, QHL-095, QHL-087, QHL-010, QHL-117 injections and mitomycin injection, diluted to corresponding concentrations by physiological saline when testing.
as §1
1) HT1080 cells were purchased from American type culture collection (ATCC) and identified according the specification provided by ATCC.
as §2
According to the clinical application of C3, QHL-086, QHL-092, QHL-095, QHL-087, QHL-010, QHL-117 were intravenously injected (IV). C3, QHL-086, QHL-092, QHL-095, QHL-087, QHL-010, QHL-117 were administered in a low and same dose of 18 umol/kg. The control group was administered by physiological saline. Drugs were administered once weekly for 3 weeks.

[3] = tested on: acidized human breast cancer (MDA-MB435) tumor tissue homogenates; experiment: Activation efficiency of the linker by tumor tissue homogenates (HPLC); assay type: biochemical; settings: Table 4-1; 37° C., MDA-MB435 tumor tissue homogenates pH6.0, compound 1 mg/ml
Method: When the C selected AAN, The activation of different S-C-A linker and control linker was evaluated in the activation assay, The S-C-A conjugate was used to dissolve and they were diluted for ten times to a concentration of 0.1 mM/ml. At 37° C., sample compounds were added into 100 μg acidized human breast cancer (MDA-MB435) tumor tissue homogenates (pH6.0) in a concentration of 1 mg/ml. The enzyme in tumor tissue homogenates could release and detected by HPLC, thereby comparing the activation efficiency of the linker by the tumor tissue.

[4] = Water solubility of freeze-dried compounds in water (observation and HPLC)
[5] = physchem
[6] = Tissue distribution of released doxorubicin in orthotopic transplantation CT26 tumor in liver; settings: tissues at 1-72 hr, FIG. 2, FIG. 3
Method: Production of tumor model: CT26 tumor cells were purposed from ATCC. Cells were cultivated in DMEM culture solution containing 10% fetal bovine serum at 37° C. and 5% CO2. The cells were passaged for every three days and cells within the 15th passage were used.
5×10^5CT26 cancer cells were subcutaneously injected to the back of the nude mice. Mice were randomly grouped after the tumor reached 800-1000 mm^3. Then extract the tumor tissue and cleave to 100 mm3 tumor tissue block and orthotopic transplant into BALB/c mice liver. After 14 days, when orthotopic transplantation tumor grow up, 36 mice with orthotopic transplantation tumor for a group are treated with drug. Then collect the different tissue at 1, 6, 12, 24, 36, 72 hr to detect the concentration of releasing doxorubicin in different tissue.

[7] = tested on: CT26 tumor cells; experiment: CT26 tumor immune model: inhibition of tumor; assay type: in vivo; settings: CT26 subcutaneous tumor, BALB/c mice, compounds 18 μmol/kg, mouse PD-1 antibody 5 mg/kg
Method: Test purpose: to investigate the anti-tumor efficacy of different compounds in CT26 cancer model for immune treatment.
1) CT26 tumor cells were purposed from ATCC. Cells were cultivated in DMEM culture solution containing 10% fetal bovine serum at 37° C. and 5% CO2. The cells were passaged for every three days and cells within the 15th passage were used.
(§3) 2) 5×10^5CT26 cancer cells were subcutaneously injected to the back of the nude mice. Mice were randomly grouped after the tumor reached at least 100 mm^3 Then treatment began and the day on which the treatment began was day 1.

[8] = tested on: tumor CD8+ T cells; experiment: CT26 tumor immune model: tumor CD8+ T cells (CD8 positive in CD45 positive cells, flow cytometry); assay type: in vivo, BALB/c mice; settings: ratio of CD8 positive cells in CD45 positive cells in tumor, compounds 18 μmol/kg, PD-1 antibody 5 mg/kg
Method: as §3
3) Analysis on tumor CD8+ T cells. The tumor tissue was homogenated and individual cells in the tumor were filtered, separated and washed by buffer twice, then cultivated with the leucocyte common antigen CD45-PE and CD8-FITC marked antibodies for 1 hour at ambient temperature. The cells were washed by phosphate buffer containing 1% fetal bovine serum twice and then analyzed for the ratio of the T lymphocyte antigen (CD8) positive cells in the leucocyte common antigen (CD45) positive cells by flow cytometry.

## COc1cccc2c1C(=O)c1c(O)c3c(c(O)c1C2=O)C[C@@](O)(C(=O)CO)C[C@@H]3O[C@H]1C[C@H](N)[C@H](O)[C@H](C)O1 [C1 DOX, Doxorubicin]
[1]
  Size of tumor (mm^3) Day 28: 1683.4 ± 1087.4 mm^3
  inhibitory rate on tumor Day 28: 41.9%
[2]
  Size of tumor (mm^3) Day 28: 754.4 ± 587.4 mm^3
  inhibitory rate on tumor Day 28: 56.8%

## COc1cccc2c1C(=O)c1c(O)c3c(c(O)c1C2=O)C[C@@](O)(C(=O)CO)C[C@@H]3O[C@H]1C[C@H](NC(=O)C(CC(C)C)NC(=O)[C@H](CC(N)=O)NC(=O)[C@H](C)NC(=O)[C@H](C)N)[C@H](O)[C@H](C)O1 (stereo partly shown) [C2 AANL-DOX] (H-AAN[ξL]-{Doxorubicin(3'-N)})
[3]
  Activation (%): 42.1%
[1]
  Size of tumor (mm^3) Day 28: 1564 ± 689.4 mm^3
  inhibitory rate on tumor Day 28: 46.0%
[4]
  solubility: < 1000 µg/mL
[2]
  Size of tumor (mm^3) Day 28: 318.5 ± 197.6 mm^3
  inhibitory rate on tumor Day 28: 81.8%

## COc1cccc2c1C(=O)c1c(O)c3c(c(O)c1C2=O)C[C@@](O)(C(=O)CO)C[C@@H]3O[C@H]1C[C@H](NC(=O)[C@H](CC(C)C)NC(=O)[C@H](CC(N)=O)NC(=O)[C@H](C)NC(=O)[C@H](C)NC(=O)[C@@H](NC(=O)CCCCCN2C(=O)C=CC2=O)C(C)C)[C@H](O)[C@H](C)O1 [QHL-123] ({Hexanoyl(6-maleimido)}-VAANL-{Doxorubicin(3'-N)})
[5]
  solubility: > 2000 µg/mL

## COc1cccc2c1C(=O)c1c(O)c3c(c(O)c1C2=O)C[C@@](O)(C(=O)CO)C[C@@H]3O[C@H]1C[C@H](NC(=O)[C@H](CC(C)C)NC(=O)[C@H](CC(N)=O)NC(=O)[C@H](C)NC(=O)[C@H](C)NC(=O)CCCCCN2C(=O)C=CC2=O)[C@H](O)[C@H](C)O1 [C3 EMC-AANL-DOX]
[3]
  Activation (%): 56.4%
[1]
  Size of tumor (mm^3) Day 28: 218.3 ± 167.7 mm^3
  inhibitory rate on tumor Day 28: 92.5%
[6]
  active doxorubicin tissue distribution, in words: major in orthotopic tumor in liver
[7]; Day 18 as printed
  inhibitory rate on tumor % Day 18: 66.9%
[7]; Day 28
  Size of tumor (mm^3) Day 28: 624.5 ± 313.6 mm^3
[4]
  solubility: < 5000 µg/mL
[2]
  Size of tumor (mm^3) Day 28: 138.3 ± 124.6 mm^3
  inhibitory rate on tumor Day 28: 92.1%
[8]
  CD8:CD45 (%): 8.9%

## COc1cccc2c1C(=O)c1c(O)c3c(c(O)c1C2=O)C[C@@](O)(C(=O)CO)C[C@@H]3O[C@H]1C[C@H](NC(=O)[C@H](CC(C)C)NC(=O)[C@H](CC(N)=O)NC(=O)[C@H](C)NC(=O)[C@H](C)NC(=O)[C@H](CCC(=O)O)NC(=O)CCOCCOCCOCCNC(=O)CCN2C(=O)C=CC2=O)[C@H](O)[C@H](C)O1 [QHL-045] ({Propanoyl(3-maleimido)-PEG3}-EAANL-{Doxorubicin(3'-N)})
[4]
  solubility: > 20000 µg/mL

## COc1cccc2c1C(=O)c1c(O)c3c(c(O)c1C2=O)C[C@@](O)(C(=O)CO)C[C@@H]3O[C@H]1C[C@H](NC(=O)[C@H](CC(C)C)NC(=O)[C@H](CC(N)=O)NC(=O)[C@H](C)NC(=O)[C@H](C)NC(=O)[C@H](CCC(=O)O)NC(=O)CCOCCOCCNC(=O)CCN2C(=O)C=CC2=O)[C@H](O)[C@H](C)O1 [QHL-039] ({Propanoyl(3-maleimido)-PEG2}-EAANL-{Doxorubicin(3'-N)})
[4]
  solubility: > 20000 µg/mL

## COc1cccc2c1C(=O)c1c(O)c3c(c(O)c1C2=O)C[C@@](O)(C(=O)CO)C[C@@H]3O[C@H]1C[C@H](NC(=O)[C@H](CC(C)C)NC(=O)[C@H](CC(N)=O)NC(=O)[C@H](C)NC(=O)[C@H](C)NC(=O)[C@H](CCC(N)=O)NC(=O)CCCCCN2C(=O)C=CC2=O)[C@H](O)[C@H](C)O1 [QHL-134] ({Hexanoyl(6-maleimido)}-QAANL-{Doxorubicin(3'-N)})
[4]
  solubility: > 5000 µg/mL

## COc1cccc2c1C(=O)c1c(O)c3c(c(O)c1C2=O)C[C@@](O)(C(=O)CO)C[C@@H]3O[C@H]1C[C@H](NC(=O)[C@H](CC(C)C)NC(=O)[C@H](CC(N)=O)NC(=O)[C@H](C)NC(=O)[C@H](C)NC(=O)[C@H](CCC(=O)O)NC(=O)CCOCCOCCNC(=O)CCCN2C(=O)C=CC2=O)[C@H](O)[C@H](C)O1 [QHL-063] ({Butanoyl(4-maleimido)-PEG2}-EAANL-{Doxorubicin(3'-N)})
[4]
  solubility: > 15000 µg/mL

## COc1cccc2c1C(=O)c1c(O)c3c(c(O)c1C2=O)C[C@@](O)(C(=O)CO)C[C@@H]3O[C@H]1C[C@H](NC(=O)[C@H](CC(C)C)NC(=O)[C@H](CC(N)=O)NC(=O)[C@H](C)NC(=O)[C@H](C)NC(=O)[C@H](CCC(=O)O)NC(=O)CCOCCOCCOCCOCCN2C(=O)C=CC2=O)[C@H](O)[C@H](C)O1 [QHL-023] (MaleimidoPEG4propanoyl-EAANL-{Doxorubicin(3'-N)})
[4]
  solubility: > 25000 µg/mL

## COc1cccc2c1C(=O)c1c(O)c3c(c(O)c1C2=O)C[C@@](O)(C(=O)CO)C[C@@H]3O[C@H]1C[C@H](NC(=O)[C@H](CC(C)C)NC(=O)[C@H](CC(N)=O)NC(=O)[C@H](C)NC(=O)[C@H](C)NC(=O)[C@H](CCSC)NC(=O)CCCCCN2C(=O)C=CC2=O)[C@H](O)[C@H](C)O1 [QHL-126] ({Hexanoyl(6-maleimido)}-MAANL-{Doxorubicin(3'-N)})
[4]
  solubility: > 2000 µg/mL

## COc1cccc2c1C(=O)c1c(O)c3c(c(O)c1C2=O)C[C@@](O)(C(=O)CO)C[C@@H]3O[C@H]1C[C@H](NC(=O)[C@H](CC(C)C)NC(=O)[C@H](CC(N)=O)NC(=O)[C@H](C)NC(=O)[C@H](C)NC(=O)[C@H](CC(=O)O)NC(=O)CCOCCOCCN2C(=O)C=CC2=O)[C@H](O)[C@H](C)O1 [QHL-033] (X2-DAANL-{Doxorubicin(3'-N)})
[4]
  solubility: > 20000 µg/mL
